Patent US20250368666A1, “INDAZOLE COMPOUNDS” (TYRA BIOSCIENCES, INC., priority 2022, published 2025)

How the values were obtained:
[1] = system: RT112/84 cell line (FGFR3-fusion); assay: Cancer cell line cell viability assay (Cell Titer-Glo), 72 hr; assay type: cell-based; settings: Homo sapiens, RT112/84, RT112/84 cell line (FGFR3-fusion)
How it was run: (§1)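 Cells seeded at 5,000-20,000/well, incubated overnight, then treated with a 9-dose, 4-fold dilution series from 3 μM in triplicate at 37° C, 5% CO2. Viability read by Cell Titer-Glo 2.0 luminescence as percent of DMSO control; IC50 from 4-parameter variable-slope sigmoidal fit.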

[2] = system: KATO-III cell line (FGFR2 amplification); assay: as above; assay type: cell-based; settings: Homo sapiens, KATO III
How it was run: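 5,000-20,000 cells/well o/n; cpd 9-pt 4x dil from 3 μM, n=3; 37° C/5% CO2; CTG 2.0 lumi; % DMSO ctrl; 4PL IC50.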

[3] = system: KG-1 cell line (FGFR 1-fusion); assay: as above; assay type: cell-based; settings: Homo sapiens, KG-1, KG-1 cell line (FGFR1-fusion)
How it was run: as §1

[4] = system: HuH7 cell line (FGF19 amplification); assay: Cancer cell line cell viability assay (Cell Titer-Glo), 120 hr; assay type: cell-based; settings: Homo sapiens, Huh-7
How it was run: as §1

FGFR1 = biological target: T1, FGFR1 (Homo sapiens, UniProt P11362); assay: Kinase binding assay (kinase-tagged T7 phage, affinity beads, qPCR), Kd; settings: read-out: FGFR1 (Kd nM)
T1 construct: made in house; host or cells: E. coli (BL21-derived), T7 phage
How it was run: (§2)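 Readout was qPCR of kinase eluted from ligand-coated affinity beads after competition with test compound. Kinases were expressed as T7 phage fusions in E. coli. Binding constants were derived by non-linear least-squares Hill fitting, Hill slope −1.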

FGFR2 = biological target: T2, FGFR2 (Homo sapiens, UniProt P21802); assay: as above; settings: read-out: FGFR2 (Kd nM)
T2 construct: made in house; host or cells: E. coli (BL21-derived), T7 phage
How it was run: as §2

FGFR4 = biological target: T3, FGFR4 (Homo sapiens, UniProt P22455); assay: as above; settings: read-out: FGFR4 (Kd nM)
T3 construct: made in house; host or cells: E. coli (BL21-derived), T7 phage
How it was run: as §2

FGFR3 (V555M) = biological target: T4, FGFR3 (V555M) (Homo sapiens, UniProt P22607, V555M); assay: as above; settings: V555M mutant; read-out: FGFR3 (V555M) (Kd nM)
T4 construct: made in house; host or cells: E. coli (BL21-derived), T7 phage
How it was run: as §2

FGFR3 = biological target: T5, FGFR3 (Homo sapiens, UniProt P22607); assay: as above; settings: read-out: FGFR3 (Kd nM)
T5 construct: made in house; host or cells: E. coli (BL21-derived), T7 phage
How it was run: as §2

T1 sequence (P11362 22-822): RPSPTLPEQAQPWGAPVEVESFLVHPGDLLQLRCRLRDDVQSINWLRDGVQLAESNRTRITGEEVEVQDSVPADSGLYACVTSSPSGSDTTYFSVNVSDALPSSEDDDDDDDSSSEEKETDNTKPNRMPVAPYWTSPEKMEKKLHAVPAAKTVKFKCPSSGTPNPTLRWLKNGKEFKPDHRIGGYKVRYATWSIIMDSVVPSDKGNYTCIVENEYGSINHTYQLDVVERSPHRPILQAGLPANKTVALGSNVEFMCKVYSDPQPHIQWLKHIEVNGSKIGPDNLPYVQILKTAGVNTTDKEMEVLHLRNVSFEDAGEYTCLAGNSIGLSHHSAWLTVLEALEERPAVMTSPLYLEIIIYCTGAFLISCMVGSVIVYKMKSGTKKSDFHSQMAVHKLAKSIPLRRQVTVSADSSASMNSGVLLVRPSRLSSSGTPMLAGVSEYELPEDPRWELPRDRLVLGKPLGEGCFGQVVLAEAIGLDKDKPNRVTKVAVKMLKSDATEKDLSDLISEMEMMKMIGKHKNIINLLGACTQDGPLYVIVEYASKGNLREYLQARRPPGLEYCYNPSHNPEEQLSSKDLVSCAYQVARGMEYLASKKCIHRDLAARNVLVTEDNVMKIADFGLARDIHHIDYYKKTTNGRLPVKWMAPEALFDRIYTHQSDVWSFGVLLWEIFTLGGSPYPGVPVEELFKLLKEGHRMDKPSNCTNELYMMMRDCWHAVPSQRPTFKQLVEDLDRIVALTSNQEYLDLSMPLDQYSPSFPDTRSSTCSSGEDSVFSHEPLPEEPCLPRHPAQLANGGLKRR
T2 sequence (P21802 22-821): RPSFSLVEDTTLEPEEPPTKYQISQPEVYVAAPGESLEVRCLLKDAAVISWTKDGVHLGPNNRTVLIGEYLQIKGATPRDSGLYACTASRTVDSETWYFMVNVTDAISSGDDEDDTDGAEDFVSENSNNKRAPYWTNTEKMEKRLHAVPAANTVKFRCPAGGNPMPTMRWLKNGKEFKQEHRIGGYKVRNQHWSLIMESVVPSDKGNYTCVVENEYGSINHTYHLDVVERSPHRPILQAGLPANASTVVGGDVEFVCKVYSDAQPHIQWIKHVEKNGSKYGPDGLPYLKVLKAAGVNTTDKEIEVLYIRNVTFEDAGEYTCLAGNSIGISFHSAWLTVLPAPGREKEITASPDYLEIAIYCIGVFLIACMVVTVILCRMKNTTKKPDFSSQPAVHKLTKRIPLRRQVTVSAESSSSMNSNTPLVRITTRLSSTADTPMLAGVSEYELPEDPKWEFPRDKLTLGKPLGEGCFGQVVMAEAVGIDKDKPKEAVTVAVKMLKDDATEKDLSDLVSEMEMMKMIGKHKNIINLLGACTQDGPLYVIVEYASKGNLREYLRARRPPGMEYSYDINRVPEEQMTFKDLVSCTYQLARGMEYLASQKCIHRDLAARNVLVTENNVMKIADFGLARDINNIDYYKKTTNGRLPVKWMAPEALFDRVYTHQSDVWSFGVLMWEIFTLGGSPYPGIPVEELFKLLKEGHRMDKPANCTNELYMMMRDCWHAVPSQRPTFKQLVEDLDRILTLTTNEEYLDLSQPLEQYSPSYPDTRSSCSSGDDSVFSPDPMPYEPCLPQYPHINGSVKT
T3 sequence (P22455 22-802): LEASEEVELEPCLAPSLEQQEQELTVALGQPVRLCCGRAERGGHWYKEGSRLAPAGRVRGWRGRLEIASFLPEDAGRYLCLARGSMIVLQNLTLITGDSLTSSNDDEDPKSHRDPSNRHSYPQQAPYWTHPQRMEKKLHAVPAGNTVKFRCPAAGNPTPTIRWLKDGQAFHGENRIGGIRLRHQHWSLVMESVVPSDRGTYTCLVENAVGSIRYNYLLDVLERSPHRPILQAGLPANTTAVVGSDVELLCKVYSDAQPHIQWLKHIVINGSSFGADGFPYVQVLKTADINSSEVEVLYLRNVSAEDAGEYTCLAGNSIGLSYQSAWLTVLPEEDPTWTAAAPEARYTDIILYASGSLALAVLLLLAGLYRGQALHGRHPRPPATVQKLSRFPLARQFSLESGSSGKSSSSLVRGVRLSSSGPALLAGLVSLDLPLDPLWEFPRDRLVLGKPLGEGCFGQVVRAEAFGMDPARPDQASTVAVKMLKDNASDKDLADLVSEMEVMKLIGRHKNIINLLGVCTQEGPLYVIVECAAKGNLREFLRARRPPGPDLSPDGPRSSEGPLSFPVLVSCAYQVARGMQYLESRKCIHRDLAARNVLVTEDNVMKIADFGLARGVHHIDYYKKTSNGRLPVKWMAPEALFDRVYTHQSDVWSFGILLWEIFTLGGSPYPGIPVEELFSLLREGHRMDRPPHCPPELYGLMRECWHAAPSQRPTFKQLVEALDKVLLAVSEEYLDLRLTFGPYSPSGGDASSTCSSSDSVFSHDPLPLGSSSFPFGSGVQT
T5 sequence (P22607 23-806): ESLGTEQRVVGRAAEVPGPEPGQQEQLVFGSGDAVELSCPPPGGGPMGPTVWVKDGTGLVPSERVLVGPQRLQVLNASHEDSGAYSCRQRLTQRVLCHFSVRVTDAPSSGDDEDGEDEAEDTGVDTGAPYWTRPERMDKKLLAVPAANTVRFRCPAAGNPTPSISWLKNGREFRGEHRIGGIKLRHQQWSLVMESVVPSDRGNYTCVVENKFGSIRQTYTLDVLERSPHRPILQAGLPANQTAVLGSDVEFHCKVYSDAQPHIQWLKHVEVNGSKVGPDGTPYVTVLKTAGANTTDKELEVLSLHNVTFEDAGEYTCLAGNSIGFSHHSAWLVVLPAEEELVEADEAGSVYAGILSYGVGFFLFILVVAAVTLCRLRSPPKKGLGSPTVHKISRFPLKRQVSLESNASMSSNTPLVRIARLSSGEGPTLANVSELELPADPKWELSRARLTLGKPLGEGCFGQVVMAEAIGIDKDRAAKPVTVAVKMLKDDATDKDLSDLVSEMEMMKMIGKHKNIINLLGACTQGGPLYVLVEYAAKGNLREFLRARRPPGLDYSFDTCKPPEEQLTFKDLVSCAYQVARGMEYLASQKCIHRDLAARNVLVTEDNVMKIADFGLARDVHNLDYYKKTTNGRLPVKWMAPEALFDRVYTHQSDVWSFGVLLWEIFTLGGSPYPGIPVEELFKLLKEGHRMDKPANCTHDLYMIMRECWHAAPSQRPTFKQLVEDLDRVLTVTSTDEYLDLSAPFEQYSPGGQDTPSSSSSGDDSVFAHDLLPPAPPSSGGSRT
T4 sequence (P22607 23-806 V555M): as the sequence (P22607 23-806) above, with V533M counted along it

Structure (SMILES) | IC50 [1] [µM] | IC50 [2] [µM] | IC50 [3] [µM] | IC50 [4] [µM] | Kd (FGFR1) [nM] | Kd (FGFR2) [nM] | Kd (FGFR4) [nM] | Kd (FGFR3 (V555M)) [nM] | Kd (FGFR3) [nM]
COc1cc2[nH]nc(-c3cnc(N4CC(C)(N5C[C@H]6C[C@@H]5CO6)C4)c(C#N)c3)c2cc1O[C@H](C)c1c(Cl)cncc1Cl [Example 338, 2-(3-((1R,4R)-2-oxa-5-aza-bicyclo[2.2.1]hep-tan-5-yl)-3-methylazetidin-1-yl)-5-(5-((R)-1-(3,5-dichloropyridin-4-yl)ethoxy)-6-methoxy-1H-indazol-3-yl)nicotinonitrile] | 0.0001 to 0.05 | 0.05 to 0.2 | 0.05 to 0.2 | 0.0001 to 0.05 | 1 to 50 | 1 to 50 | 1 to 50 | 1 to 50 | 1 to 50
CC[C@@H](C)NC1(C)CN(c2ncc(-c3n[nH]c4cc(OC)c(O[C@H](C)c5c(Cl)cncc5Cl)cc34)cc2C#N)C1 [Example 145, 5-[5-[(1R)-1-(3,5-dichloro-4-pyridyl)ethoxy]-6-methoxy-1H-indazol-3-yl]-2-[3-methyl-3-[[(1R)-1-methylpropyl]amino]aze-tidin-1-yl]pyridine-3-carbonitrile] | 0.0001 to 0.05 | 0.05 to 0.2 | 0.05 to 0.2 | 0.0001 to 0.05 | 1 to 50 | 1 to 50 | 1 to 50 | 1 to 50 | 1 to 50
COc1cc2[nH]nc(-c3cnc(N4CC(C)(N5CC(C)(O)C5)C4)c(C#N)c3)c2cc1O[C@H](C)c1c(Cl)cncc1Cl [Example 99, (R)-5-(5-(1-(3,5-dichloropyridin-4-yl)ethoxy)-6-methoxy-1H-indazol-3-yl)-2-(3-hydroxy-3,3′-dimethyl-[1,3′-biazetidin]-1′-yl)nicotinonitrile] | 0.0001 to 0.05 | 0.0001 to 0.05 | 0.0001 to 0.05 | 0.0001 to 0.05 | 1 to 50 | 1 to 50 | 1 to 50 | 1 to 50 | 1 to 50
C[C@@H](Oc1ccc2[nH]nc(-c3cnc(N4CC(C)(CN5CCCC5)C4)c(C#N)c3)c2c1)c1c(Cl)cncc1Cl [Example 123, (R)-5-(5-(1-(3,5-dichloropyridin-4-yl)ethoxy)-1H-indazol-3-yl)-2-(3-methyl-3-(pyrrolidin-1-ylmethyl)azetidin-1-yl)nicotinonitrile] | 0.05 to 0.2 | 0.2 to 1 | 0.2 to 1 | 0.0001 to 0.05 | 50 to 300 | 1 to 50 | 1 to 50 | 1 to 50 | 1 to 50
C[C@@H](Oc1ccc2[nH]nc(-c3cnc(N4CC(C)(NCCS(C)(=O)=O)C4)c(C#N)c3)c2c1)c1c(Cl)cncc1Cl [Example 325, 5-[5-[(1R)-1-(3,5-dichloro-4-pyridyl)ethoxy]-1H-indazol-3-yl]-2-[3-methyl-3-(2-methylsulfonylethyl-amino)azetidin-1-yl]pyridine-3-carbonitrile] | 0.05 to 0.2 | 0.05 to 0.2 | 0.2 to 1 | 0.0001 to 0.05 | 1 to 50 | 1 to 50 | 1 to 50 | 1 to 50 | 1 to 50
COc1cc2[nH]nc(-c3cnc(N4CC(C)(CNC(C)C)C4)c(C#N)c3)c2cc1O[C@H](C)c1c(Cl)cncc1Cl [Example 50, (R)-5-(5-(1-(3,5-dichloropyridin-4-yl)ethoxy)-6-methoxy-1H-indazol-3-yl)-2-(3-((isopropylamino)methyl)-3-methylazetidin-1-yl)nicotinonitrile] | 0.0001 to 0.05 | 0.0001 to 0.05 | 0.0001 to 0.05 | 0.0001 to 0.05 | 1 to 50 | 1 to 50 | 1 to 50 | 1 to 50 | 1 to 50
C[C@@H](Oc1ccc2[nH]nc(-c3cnc(N4CC(C)(NC5COC5)C4)c(C#N)c3)c2c1)c1c(Cl)cncc1Cl [Example 4, (R)-5-(5-(1-(3,5-dichloropyridin-4-yl)ethoxy)-1H-indazol-3-yl)-2-(3-methyl-3-(oxetan-3-ylamino)azetidin-1-yl)nicotinonitrile] | 0.05 to 0.2 | 0.2 to 1 | 0.2 to 1 | 0.0001 to 0.05 | 50 to 300 | 50 to 300 | 1 to 50 | 1 to 50 | 1 to 50
C[C@@H](Oc1ccc2[nH]nc(-c3cnc(N4CC(C)(NC5CS(=O)(=O)C5)C4)c(C#N)c3)c2c1)c1c(Cl)cncc1Cl [Example 7, (R)-5-(5-(1-(3,5-dichloropyridin-4-yl)ethoxy)-1H-indazol-3-yl)-2-(3-((1,1-dioxidothietan-3-yl)amino)-3-methylazetidin-1-yl)nicotinonitrile] | 0.0001 to 0.05 | 0.05 to 0.2 | 0.2 to 1 | 0.0001 to 0.05 | 50 to 300 | 50 to 300 | 1 to 50 | 1 to 50 | 1 to 50
C[C@@H](Oc1ccc2[nH]nc(-c3cnc(N4CC(C)(N5CCOCC5)C4)nc3)c2c1)c1c(Cl)cncc1Cl [Example 43, (R)-4-(1-(5-(5-(1-(3,5-dichloropyridin-4-yl)ethoxy)-1H-indazol-3-yl)pyrimidin-2-yl)-3-methylazetidin-3-yl)morpholine] | 0.0001 to 0.05 | 0.05 to 0.2 | 0.05 to 0.2 | 0.0001 to 0.05 | 1 to 50 | 1 to 50 | 1 to 50 | 1 to 50 | 1 to 50
C[C@@H](Oc1ccc2[nH]nc(-c3cnc(N4CC(C)(NCCC(F)F)C4)c(C#N)c3)c2c1)c1c(Cl)cncc1Cl [Example 21, (R)-5-(5-(1-(3,5-dichloropyridin-4-yl)ethoxy)-1H-indazol-3-yl)-2-(3-((3,3-difluoropropyl)amino)-3-methylazetidin-1-yl)nicotinonitrile] | 0.05 to 0.2 | 0.2 to 1 | 0.2 to 1 | 0.05 to 0.2 | 50 to 300 | 50 to 300 | 1 to 50 | 1 to 50 | 1 to 50
CC[C@H](C)NC1(C)CN(c2ncc(-c3n[nH]c4cc(OC)c(O[C@H](C)c5c(Cl)cncc5Cl)cc34)cc2C#N)C1 [Example 144, 5-[5-[(1R)-1-(3,5-dichloro-4-pyridyl)ethoxy]-6-methoxy-1H-indazol-3-yl]-2-[3-methyl-3-[[(1S)-1-methylpropyl]amino]aze-tidin-1-yl]pyridine-3-carbonitrile] | 0.0001 to 0.05 | 0.05 to 0.2 | 0.05 to 0.2 | 0.0001 to 0.05 | 1 to 50 | 1 to 50 | 1 to 50 | 1 to 50 | 1 to 50
C[C@@H](Oc1cc2c(-c3cnc(N4CC(C)(NCC5CC5)C4)c(C#N)c3)n[nH]c2cc1F)c1c(Cl)cncc1Cl [Example 134, (R)-2-(3-((cyclopropylmethyl)a-mino)-3-methylazetidin-1-yl)-5-(5-(1-(3,5-dichloropyridin-4-yl)ethoxy)-6-fluoro-1H-indazol-3-yl)nicotinonitrile] | 0.05 to 0.2 | 0.2 to 1 | 0.2 to 1 | 0.05 to 0.2 | 50 to 300 | 50 to 300 | 1 to 50 | 1 to 50 | 1 to 50
COc1cc2[nH]nc(-c3cnc(N4CC(C)(NCC5(O)CC5)C4)c(C#N)c3)c2cc1O[C@H](C)c1c(Cl)cncc1Cl [Example 105] | 0.0001 to 0.05 | 0.05 to 0.2 | 0.05 to 0.2 | 0.0001 to 0.05 | 1 to 50 | 1 to 50 | 1 to 50 | 1 to 50 | 1 to 50
COc1cc2[nH]nc(-c3cnc(N4CC(C)(NCC(F)F)C4)c(C#N)c3)c2cc1O[C@H](C)c1c(Cl)cncc1Cl [Example 42, 5-[5-[(1R)-1-(3,5-dichloro-4-pyridyl)ethoxy]-6-methoxy-1H-indazol-3-yl]-2-[3-(2,2-difluoroethylamino)-3-methyl-azetidin-1-yl]pyridine-3-carbonitrile] | 0.0001 to 0.05 | 0.05 to 0.2 | 0.05 to 0.2 | 0.0001 to 0.05 | 1 to 50 | 1 to 50 | 1 to 50 | 1 to 50 | 1 to 50
COc1cc2[nH]nc(-c3cnc(N4CC(C)(NCCC(F)F)C4)c(C#N)c3)c2cc1O[C@H](C)c1c(Cl)cncc1Cl [Example 41, 5-[5-[(1R)-1-(3,5-dichloro-4-pyridyl)ethoxy]-6-methoxy-1H-indazol-3-yl]-2-[3-(3,3-difluoropropylamino)-3-methyl-azetidin-1-yl]pyridine-3-carbonitrile] | 0.0001 to 0.05 | 0.05 to 0.2 | 0.05 to 0.2 | 0.0001 to 0.05 | 1 to 50 | 1 to 50 | 1 to 50 | 1 to 50 | 1 to 50
